According to patent publication US7442802B2, “Cyclooxygenase-2 selective inhibitors, compositions and methods of use” (NitroMed, Inc., priority 2002, dated 2008):
Where two headings read alike, the source gives them in different places.

What was measured:
[1] = biological target: T1, COX-1 (Homo sapiens, UniProt P23219); experiment: Human COX-1 enzyme activity in human whole blood (A23187-stimulated, thromboxane B2 EIA); assay type: cell-based; settings: for inhibition at 100 µM: read-out: COX-1 Inhibition (% at 100 μM)
T1 construct: endogenous in cells; host or cells: heparinised human whole blood from donors, stimulated with the calcium ionophore A23187
Experimental: (§1) The blood was transported to the laboratory on ice packs and used within 1.5 hours of collection. Upon receipt in the laboratory, the blood was allowed to come to room temperature for 15 minutes prior to distribution in 1 mL aliquots per well of 24 well tissue culture plates. […] Test compounds were dissolved in DMSO, at 1000 fold the final desired concentration, and further diluted, as indicated, in DMSO. One μL of each dilution of the test compound was added per well, in duplicate wells; wells not receiving test compound (e.g., basal, background or control wells) received 1 μL DMSO. […] Louis, Mo., Catalogue No. […] Louis, Mo., Catalogue No. […] (Again, basal, background or control wells not stimulated with A23187 received 1 μL of DMSO.) At 5 hours after the addition of the test compound, all incubations were terminated by placement on ice and the addition of 2 mM EGTA (100 μL of 20 mM EGTA, tetrasodium, in PBS (phosphate buffered saline) without Ca^++ and Mg^++, pH 7.2)). […] One hundred μL of plasma was removed from each blood sample and added to 1 mL of methanol in new 15 mL polypropylene centrifuge tubes, vortexed, and stored overnight at -20° C. […] The samples were assayed for thromboxane B2 using EIA kits supplied by Cayman Chemical Co. […] The % inhibition for COX-1 and COX-2 enzyme activity in human whole blood by the test compounds, at the indicated concentrations, are given in Table 1.

[2] = biological target: T2, COX-2 (Homo sapiens, UniProt P35354); experiment: Human COX-2 enzyme activity in human whole blood (LPS-induced, thromboxane B2 EIA); assay type: cell-based; settings: for inhibition at 1 µM: read-out: COX-2 Inhibition (% at 1 μM); for inhibition at 10 µM: read-out: COX-2 Inhibition (% at 10 μM)
T2 construct: To induce COX-2, lipopolysaccharide (LPS) from E. coli; endogenous in cells; host or cells: heparinised human whole blood from donors, with COX-2 induced by E. coli LPS
T2 sequence (P35354 18-604): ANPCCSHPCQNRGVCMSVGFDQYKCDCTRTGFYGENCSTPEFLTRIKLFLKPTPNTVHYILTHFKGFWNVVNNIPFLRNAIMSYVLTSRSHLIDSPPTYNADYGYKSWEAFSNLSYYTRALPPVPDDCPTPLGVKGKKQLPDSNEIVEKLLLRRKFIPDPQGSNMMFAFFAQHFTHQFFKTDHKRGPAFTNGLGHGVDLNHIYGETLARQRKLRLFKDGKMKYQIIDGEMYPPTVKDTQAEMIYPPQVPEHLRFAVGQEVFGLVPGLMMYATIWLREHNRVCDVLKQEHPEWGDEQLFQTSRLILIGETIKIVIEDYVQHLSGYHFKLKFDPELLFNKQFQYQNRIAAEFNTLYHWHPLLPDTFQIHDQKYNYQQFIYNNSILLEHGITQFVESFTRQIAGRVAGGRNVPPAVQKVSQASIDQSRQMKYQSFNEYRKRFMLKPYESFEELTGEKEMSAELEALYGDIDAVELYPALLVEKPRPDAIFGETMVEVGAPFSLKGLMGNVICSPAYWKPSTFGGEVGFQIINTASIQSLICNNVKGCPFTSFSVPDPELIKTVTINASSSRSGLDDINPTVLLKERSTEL
Experimental: as §1

[3] = 100 μM, human whole blood, A23187 stimulation
[4] = 1 μM, human whole blood, LPS induction
[5] = 10 μM, human whole blood, LPS induction

T1 sequence (P23219 24-599): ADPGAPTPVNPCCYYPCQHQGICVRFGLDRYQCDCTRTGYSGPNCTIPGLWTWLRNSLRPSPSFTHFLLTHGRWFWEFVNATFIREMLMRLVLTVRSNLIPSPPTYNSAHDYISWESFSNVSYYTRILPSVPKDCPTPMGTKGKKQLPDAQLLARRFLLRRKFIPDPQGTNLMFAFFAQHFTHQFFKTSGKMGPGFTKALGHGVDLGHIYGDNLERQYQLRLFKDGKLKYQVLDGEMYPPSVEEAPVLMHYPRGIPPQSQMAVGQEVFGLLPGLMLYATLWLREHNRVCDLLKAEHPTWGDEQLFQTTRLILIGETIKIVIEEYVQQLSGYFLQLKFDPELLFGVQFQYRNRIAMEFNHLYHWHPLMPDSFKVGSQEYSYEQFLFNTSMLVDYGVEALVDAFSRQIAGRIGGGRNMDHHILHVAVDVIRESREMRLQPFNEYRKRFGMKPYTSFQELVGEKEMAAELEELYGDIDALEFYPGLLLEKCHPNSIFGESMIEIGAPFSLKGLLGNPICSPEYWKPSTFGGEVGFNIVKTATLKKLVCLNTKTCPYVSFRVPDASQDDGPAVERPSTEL

Compound | inhibition at 100 µM [1, 3] [%] | inhibition at 1 µM [2, 4] [%] | inhibition at 10 µM [2, 5] [%] | also measured
NS(=O)(=O)c1ccc(-c2c(-c3ccccc3)noc2COCC(F)(F)C(F)(F)C(F)(F)CO)cc1 [Example 34a, 4-(5-((2,2,3,3,4,4-Hexafluoro-5-hydroxypentyloxy)methyl)-3-phenylisoxazol-4-yl)benzenesulfonamide] | – | – | – | inhibition at 100 µM [1]: 95%; inhibition at 1 µM [2]: 90%; inhibition at 10 µM [2]: 100%
CS(=O)(=O)c1ccc(-c2cc(COCCCO[N+](=O)[O-])nn2-c2ccc(C(F)(F)F)cc2)cc1 [Example 9e, 4-(Methylsulfonyl)-1-(3-((3-(nitrooxy)propoxy)methyl)-1-(4-(trifluoromethyl)phenyl)pyrazol-5-yl)benzene] | 45 | 60 | 100 | –
CS(=O)(=O)c1ccc(-c2cc(C(=O)CCCO)nn2-c2ccc(Br)cc2)cc1 [Example 14d, 1-(1-(4-Bromophenyl)-5-(4-(methylsulfonyl)phenyl)pyrazol-3-yl)-4-hydroxybutan-1-one] | 0 | 15 | 70 | –
CS(=O)(=O)c1ccc(-c2cc(COCCCO)nn2-c2ccc(F)cc2)cc1 [Example 18d, 1-(1-(4-Fluorophenyl)-3-((3-hydroxypropoxy)methyl)pyrazol-5-yl)-4-(methylsulfonyl)benzene] | 40 | 45 | 90 | –
NS(=O)(=O)c1ccc(-c2c(-c3ccccc3)noc2COCC(F)(F)CO)cc1 [Example 32c, 4-(5-((2,2-Difluoro-3-hydroxypropoxy)methyl)-3-phenylisoxazol-4-yl)benzenesulfonamide] | -20 | 15 | 75 | –
CS(=O)(=O)c1ccc(-c2cc(COCCCO[N+](=O)[O-])nn2-c2ccc(Cl)cc2)cc1 [Example 7e, 1-(1-(4-Chlorophenyl)-3-((3-(nitrooxy)propoxy)methyl)pyrazol-5-yl)-4-(methylsulfonyl)benzene] | 90 | 65 | 100 | –
COc1ccc(-n2nc(C(=O)CCCO)cc2-c2ccc(S(C)(=O)=O)cc2)cc1 [Example 24d, 4-Hydroxy-1-(1-(4-methoxyphenyl)-5-(4-(methylsulfonyl)phenyl)-pyrazol-3-yl)butan-1-one] | 85 | 50 | 85 | –
NS(=O)(=O)c1ccc(-c2c(-c3ccccc3)noc2COCCS(=O)(=O)CCO[N+](=O)[O-])cc1 [Example 37c] | – | – | – | COX-1 Inhibition (% at 100 μM) [1, 3]: −15%; COX-2 Inhibition (% at 1 μM) [2, 4]: 20%; COX-2 Inhibition (% at 10 μM) [2, 5]: 20%
NS(=O)(=O)c1ccc(-c2c(-c3ccccc3)noc2COCCO)cc1 [Example 27a] | – | – | – | COX-1 Inhibition (% at 100 μM) [1, 3]: 45%; COX-2 Inhibition (% at 1 μM) [2, 4]: 40%; COX-2 Inhibition (% at 10 μM) [2, 5]: 90%
CS(=O)(=O)c1ccc(-c2cc(CO)nn2C2CCCCCC2)cc1 [Example 2c, 1-(1-Cycloheptyl-3-(hydroxymethyl)pyrazol-5-yl)-4-(methylsulfonyl)benzene] | 40 | 10 | 25 | –
CS(=O)(=O)c1ccc(-c2cc(/C=C/CCO)nn2C2CCCCC2)cc1 [Example 21b] | – | – | – | COX-1 Inhibition (% at 100 μM) [1, 3]: 10%; COX-2 Inhibition (% at 1 μM) [2, 4]: 10%; COX-2 Inhibition (% at 10 μM) [2, 5]: 25%
CS(=O)(=O)c1ccc(-c2cc(COCCCO[N+](=O)[O-])nn2-c2ccc(F)cc2)cc1 [Example 18e, 1-(1-(4-Fluorophenyl)-3-((3-(nitrooxy)propoxy)methyl)pyrazol-5-yl)-4-(methylsulfonyl)benzene] | 80 | 55 | 95 | –
CS(=O)(=O)c1ccc(-c2cc(/C=C/CO)nn2C2CCCCC2)cc1 [Example 31c, 4-(3-((1E)-3-Hydroxyprop-1-enyl)-1-cyclohexylpyrazol-5-yl)-1(methylsulfonyl)benzene] | 10 | 0 | 15 | –
CS(=O)(=O)c1ccc(-c2cc(/C=C/CCO[N+](=O)[O-])nn2-c2ccccc2)cc1 [Example 11f, 1-(3-((1E)-4-(Nitrooxy)but-1-enyl)-1-phenylpyrazol-5-yl)-4-(methylsulfonyl)benzene] | 85 | 55 | 90 | –
NS(=O)(=O)c1ccc(-c2c(-c3ccccc3)noc2COCCCO[N+](=O)[O-])cc1 [Example 26b] | – | – | – | COX-1 Inhibition (% at 100 μM) [1, 3]: 70%; COX-2 Inhibition (% at 1 μM) [2, 4]: 55%; COX-2 Inhibition (% at 10 μM) [2, 5]: 100%
CS(=O)(=O)c1ccc(-c2cc(C(=O)CCCCCO)nn2C2CCCCC2)cc1 [Example 22c, 1-(1-Cyclohexyl-5-(4-(methylsulfonyl)phenyl)-pyrazol-3-yl)-6-hydroxyhexan-1-one] | 40 | 25 | 80 | –
CS(=O)(=O)c1ccc(-c2cc(C(=O)CCCO)nn2C2CCCCC2)cc1 [Example 3e, 1-(1-Cyclohexyl-5-(4-(methylsulfonyl)phenyl)pyrazol-3-yl)-4-hydroxybutan-1-one] | 0 | 60 | 90 | –
4-(5-(Chlorophenyl)-3-((3-(nitrooxy)propoxy)methyl)benzene-sulfonamide [Example 36c] | – | – | – | COX-1 Inhibition (% at 100 μM) [1, 3]: 55%; COX-2 Inhibition (% at 1 μM) [2, 4]: 40%; COX-2 Inhibition (% at 10 μM) [2, 5]: 80%
CS(=O)(=O)c1ccc(-c2cc(/C=C/CCO[N+](=O)[O-])nn2C2CCCCC2)cc1 [Example 21c, 1-(3-((1E)-4-(Nitrooxy)but-1-enyl)-1-cyclohexylpyrazol-5-yl)-4-(methylsulfonyl)benzene] | 60 | 45 | 90 | –
CS(=O)(=O)c1ccc(-c2cc(CO)nn2C2CCCCCCC2)cc1 [Example 1g] | – | – | – | COX-1 Inhibition (% at 100 μM) [1, 3]: 35%; COX-2 Inhibition (% at 1 μM) [2, 4]: 35%; COX-2 Inhibition (% at 10 μM) [2, 5]: 75%
CS(=O)(=O)c1ccc(-c2cc(CNCCO)nn2C2CCCCC2)cc1 [Example 38c, 1-(1-Cyclohexyl-3-(((2-hydroxyethyl)amino)methyl)pyrazol-5-yl)-4-(methylsulfonyl)benzene] | 10 | 15 | 25 | –
CS(=O)(=O)c1ccc(-c2cc(CCCC(=O)OCCCO[N+](=O)[O-])nn2-c2ccc(C(F)(F)F)cc2)cc1 [Example 47f, 3-(Nitrooxy)propyl 4-(5-(4-(methylsulfonyl)phenyl)-1-(4-(trifluoromethyl)-phenyl)pyrazol-3-yl)butanoate] | 85 | 30 | 65 | –
CS(=O)(=O)c1ccc(-c2cc(COCCCO)nn2-c2ccc(Cl)cc2)cc1 [Example 7d, 1-(1-(4-Chlorophenyl)-3-((3-hydroxypropoxy)methyl)pyrazol-5-yl)-4-(methylsulfonyl)benzene] | 80 | 25 | 95 | –
CS(=O)(=O)c1ccc(-n2nc(/C=C\CCO)cc2-c2cccnc2)cc1 [Example 25e, 1-(3-((1Z)-4-Hydroxybut-1-enyl)-5-(3-pyridnyl)pyrazolyl)-4-(methylsulfonyl)benzene] | – | – | – | COX-1 Inhibition (% at 100 μM) [1, 3]: 10%; COX-2 Inhibition (% at 1 μM) [2, 4]: 15%; COX-2 Inhibition (% at 10 μM) [2, 5]: 0%
